For the test, the target named is human TRPV1 (Homo sapiens (Human), UniProt Q8NER1). The settings on record: read-out: IC50 (μM), antagonist effect against human TRPV1; CHO cells expressing human TrpV1; stimulated with 2.5 μM NADA (EC80); mean of at least three independent experiments.

Each structure is given as a SMILES string.

In general, IC50 refers to the concentration needed to halve the response being measured.

Sequence of human TRPV1 (Q8NER1 whole entry): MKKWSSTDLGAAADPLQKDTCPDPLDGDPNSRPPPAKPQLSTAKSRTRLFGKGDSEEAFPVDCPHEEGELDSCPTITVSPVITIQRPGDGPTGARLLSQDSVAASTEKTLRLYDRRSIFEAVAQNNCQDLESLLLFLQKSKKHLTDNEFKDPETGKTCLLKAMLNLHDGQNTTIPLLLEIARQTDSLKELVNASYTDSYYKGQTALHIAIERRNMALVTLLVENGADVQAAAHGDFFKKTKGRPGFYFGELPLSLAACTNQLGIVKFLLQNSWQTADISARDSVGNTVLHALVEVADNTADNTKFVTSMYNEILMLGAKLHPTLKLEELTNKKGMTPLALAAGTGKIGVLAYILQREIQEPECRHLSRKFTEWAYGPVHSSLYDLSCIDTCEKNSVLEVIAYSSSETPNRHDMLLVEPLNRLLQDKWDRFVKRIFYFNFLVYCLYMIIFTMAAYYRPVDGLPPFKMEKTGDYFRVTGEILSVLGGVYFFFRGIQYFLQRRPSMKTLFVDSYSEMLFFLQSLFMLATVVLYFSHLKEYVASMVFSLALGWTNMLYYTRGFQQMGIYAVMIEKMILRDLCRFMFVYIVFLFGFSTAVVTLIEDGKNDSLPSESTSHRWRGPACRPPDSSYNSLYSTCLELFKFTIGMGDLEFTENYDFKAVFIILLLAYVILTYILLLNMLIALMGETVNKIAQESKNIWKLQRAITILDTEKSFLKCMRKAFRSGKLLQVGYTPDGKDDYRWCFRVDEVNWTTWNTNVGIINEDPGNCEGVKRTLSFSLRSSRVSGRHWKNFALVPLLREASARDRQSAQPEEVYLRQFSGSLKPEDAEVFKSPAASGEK
Protocol: Chinese Hamster Ovary (CHO) cells transfected to express human TrpV1 receptor (which are herein referred to as CHO-huTrpV1 cells), were grown in F-12 Ham's Nutrient Mixture media (HyClone SH30026.01) supplemented with 10% Fetal Bovine Serum (Invitrogen #26140-079), 1% Antibiotic/antimycotic (Invitrogen #15240-062) and 500 ug/mL geneticin (ThermoFisher scientific #1031035). Cells were grown in T-75 flasks at 37° C. incubator with 5% CO2. The cells were passaged twice a week at a ratio of 1:10 to 1:20 to maintain steady growth. For experimentation, cells were harvested at approximately 80% confluency and plated onto 384 well black cell culture plates (cat #781091, Greinier Bio-One Inc.) at 15,000 cells per well in 20 μl media and grown overnight.
The loading dye was prepared following instruction of Calcium 6 assay kit (Molecular Probes, #R8190): 10 ml buffer from bottle B was added to 1 vial of bottle A (adapted to room temperature from −20° C.) and mixed well, then 2.5 mM of fresh prepared probenecid, was added and mixed well. 20 μl/well of loading dye was added on top of the cells, and incubated at 37° C. for 1 hour 30 min.
Assay buffer preparation: 1×HBSS, 2 mM HEPES, 0.1% BSA plus 2.5 mM freshly prepared probenecid (Invitrogen, #P36400). 25 μl/well assay buffer in 384 well clear plate (cat #782281, Greiner Bio-one) was dispensed with buffer distributor (Multidrop ComB1 from Thermo Scientific). The compounds were in 384 Echo plate (cat #LPL0200, Labcyte) and the starting concentration of compound was 10 mM, then 1 to 3 serial dilution in 100% DMSO, 8 ul/well). 125 nl compounds was transferred to the 384 well plate containing 25 μl/well buffer with Echo® 555 Liquid Handler (Labcyte), such that the compound concentration was 5 fold of final concentration. The plate was shook slowly at 40 rpm/min for 10 min to mix. 10 μl of 5 fold compound in the buffer was transferred to the cell plate (containing 20 μl cells and 20 μl dye) using Vertical Pipetting Station 384ST (Agilent Technologies). Six fold of final concentration of NADA (N-arachidonyl dopamine, cat #A8848, Sigma) in the assay buffer was prepared and 30 μl/well was distributed in 384 well clear plate.
After compounds were added to the cell plate with loading dye, within 10-15 minutes, cell plate and plate containing NADA was placed into the FLIPR (Fluorescent Imaging Plate Reader) instrument (Tetra System, Molecular device). The TRPV1 receptor was stimulated by application of 10 μl per well of NADA. For testing the effect of compounds for possible antagonism, 2.5 μM NADA was used at the EC80 concentration.
For determination of antagonist IC50 values (concentration of antagonist that inhibits response to NADA by 50%), at least 10 antagonist concentration were measured in triplicate. The response in the presence of the antagonist was calculated as a percentage of the control response to NADA and was plotted against the concentration of the antagonist. The IC50 was estimated by non-linear regression analysis to sigmoidal-logistic curves by HELIOS (PROD 2) system. These values were averaged (means and standard error of the mean) for at least three independent experiments.

Regarding `Fc1ccc2cnccc2c1CN[C@H]1C[C@H](Oc2ccnc(C(F)F)c2)C1` [Example 111, (1r,3r)-3-((2-(difluoromethyl)pyridin-4-yl)oxy)-N-((6-fluoroisoquinolin-5-yl)methyl)cyclobutan-1-amine], the IC50 stood at 1.65 µM.

In the case of `FC(F)(F)c1ccc(O[C@H]2C[C@H](NCc3cccc4cnccc34)C2)cn1` [Example 112, (1r,3r)-N-(isoquinolin-5-ylmethyl)-3-((6-(trifluoromethyl)pyridin-3-yl)oxy)cyclobutan-1-amine], the IC50 came out at 2.69 µM.
